The results in this text go back to patent US20100311714A1, “1H-IMIDAZO[4,5-c]QUINOLINONE COMPOUNDS” (priority 2009, published 2010).

The nature of series [1]: Parallel Artificial Membrane Permeability Assay (PAMPA) at pH 6.8. It is filed as physicochemical. A digest of the protocol:
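PAMPA permeability measured at pH 6.8 following the Wohnsland and Faller method; value reported as log Pe.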
(The PAMPA barrier holds no transporters, so it reflects passive diffusion.)

For series [2], the target named is T1, PI3K beta (Homo sapiens, UniProt P42338).
T1 construct: for the full-length p110-b subunit are generated and fused by overlapping PCR; His tag (C); made in house; host or cells: baculovirus BV949; Tn5 (Trichoplusia ni) or TiniPro insect cells
T1 sequence (P42338 with tags, fused parts or gaps limits assumed): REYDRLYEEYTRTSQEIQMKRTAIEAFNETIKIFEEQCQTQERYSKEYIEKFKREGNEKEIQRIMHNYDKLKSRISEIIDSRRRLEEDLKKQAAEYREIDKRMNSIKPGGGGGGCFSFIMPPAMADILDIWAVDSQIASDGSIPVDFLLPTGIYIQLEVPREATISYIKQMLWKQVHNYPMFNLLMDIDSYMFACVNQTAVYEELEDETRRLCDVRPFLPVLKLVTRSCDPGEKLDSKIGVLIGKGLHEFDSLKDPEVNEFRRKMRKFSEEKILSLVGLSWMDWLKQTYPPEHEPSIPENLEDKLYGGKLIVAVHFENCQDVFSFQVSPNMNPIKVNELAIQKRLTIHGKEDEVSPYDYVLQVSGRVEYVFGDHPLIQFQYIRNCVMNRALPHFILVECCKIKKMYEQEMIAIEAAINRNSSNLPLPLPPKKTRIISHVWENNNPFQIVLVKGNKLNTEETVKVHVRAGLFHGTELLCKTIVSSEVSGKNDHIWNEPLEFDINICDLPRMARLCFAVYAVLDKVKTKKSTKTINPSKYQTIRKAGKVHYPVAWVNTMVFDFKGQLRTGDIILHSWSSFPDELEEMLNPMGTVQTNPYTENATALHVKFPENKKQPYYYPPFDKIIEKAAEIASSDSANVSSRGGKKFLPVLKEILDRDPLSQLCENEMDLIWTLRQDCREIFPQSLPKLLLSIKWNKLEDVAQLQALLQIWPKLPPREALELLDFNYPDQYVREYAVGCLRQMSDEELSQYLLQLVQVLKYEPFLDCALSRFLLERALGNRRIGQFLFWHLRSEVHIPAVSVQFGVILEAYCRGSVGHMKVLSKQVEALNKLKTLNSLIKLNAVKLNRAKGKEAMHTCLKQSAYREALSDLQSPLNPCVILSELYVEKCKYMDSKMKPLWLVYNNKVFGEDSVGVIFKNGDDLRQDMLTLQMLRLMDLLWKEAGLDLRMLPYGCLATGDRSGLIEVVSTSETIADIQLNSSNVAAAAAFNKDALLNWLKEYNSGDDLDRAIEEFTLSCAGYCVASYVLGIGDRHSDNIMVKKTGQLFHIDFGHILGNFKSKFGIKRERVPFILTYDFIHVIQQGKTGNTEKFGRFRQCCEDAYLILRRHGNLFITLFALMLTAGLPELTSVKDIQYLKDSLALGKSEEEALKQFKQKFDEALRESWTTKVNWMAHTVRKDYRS
The experiment in a line: PI3K beta kinase assay (Kinase-Glo luminescence). The format is biochemical. The note with it: read-out: EPK_PI3Kbeta/IC50. The method in brief:
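PI3Kβ construct BV949 (p85 iSH2–p110β full-length, C-His), 25 nM, reacted with 1 μM ATP and 10 μg/mL phosphatidylinositol in Tris pH 7.5, MgCl2, NaCl, CHAPS, DTT buffer, 60 min at room temperature. Remaining ATP by Kinase-Glo luminescence; IC50 from 4-parameter logistic fit of 8 concentrations.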
On the technique in general: Kinase-Glo reads ATP consumption through a luciferase reaction.

Regarding `CCOc1ccc(-c2ccc3ncc4c(c3c2)n(-c2ccc(N(C)C)nc2C)c(=O)n4C)cn1` [Example 19.3, 1-(6-Dimethylamino-2-methyl-pyridin-3-yl)-8-(6-ethoxy-pyridin-3-yl)-3-methyl-1,3-dihydro-imidazo[4,5-c]quinolin-2-one], in series [1], the “HT-Perm logPe pH6.8” value is listed as −4.4. In addition, the IC50 in series [2] stood at 1970 nM.
In the case of `COc1cc(-c2ccc3ncc4c(c3c2)n(-c2ccc(N(C)C)nc2C)c(=O)n4C)cnc1CO` [Example 19.4, 1-(6-Dimethylamino-2-methyl-pyridin-3-yl)-8-(6-hydroxymethyl-5-methoxy-pyridin-3-yl)-3-methyl-1,3-dihydro-imidazo[4,5-c]quinolin-2-one], the “HT-Perm logPe pH6.8” value in series [1] was −4.1. In series [2], the IC50 is under 3 nM.
With `Cc1nc(N(C)C)ccc1-n1c(=O)n(C)c2cnc3ccc(-c4cncc(N)c4)cc3c21` [Example 19.5, 8-(5-Amino-pyridin-3-yl)-1-(6-dimethylamino-2-methyl-pyridin-3-yl)-3-methyl-1,3-dihydro-imidazo[4,5-c]quinolin-2-one], in series [1], the “HT-Perm logPe pH6.8” value was −5.2. For the same molecule, the IC50 in series [2] came to 300 nM.
With `COCC(=O)Nc1ccc(-n2c(=O)n(C)c3cnc4ccc(-c5cncc(N)c5)cc4c32)c(C)n1` [Example 20.1, N-{5-[8-(5-Amino-pyridin-3-yl)-3-methyl-2-oxo-2,3-dihydro-imidazo[4,5-c]quinolin-1-yl]-6-methyl-pyridin-2-yl}-2-methoxy-acetamide], the “HT-Perm logPe pH6.8” value in series [1] is listed as −6.1. The IC50 in series [2] worked out at 38 nM.
On to `Cc1nc(N2CC(F)(F)C2)ccc1-n1c(=O)n(C)c2cnc3ccc(-c4cncc(C(C)(C)O)c4)cc3c21` [Example 24.2, 1-[6-(3,3-Difluoro-azetidin-1-yl)-2-methyl-pyridin-3-yl]-8-[5-(1-hydroxy-1-methyl-ethyl)-pyridin-3-yl]-3-methyl-1,3-dihydro-imidazo[4,5-c]quinolin-2-one], for which the “HT-Perm logPe pH6.8” value in series [1] was −5. Further, the IC50 in series [2] was found to be 19 nM.
With `CNc1ccc(-c2ccc3ncc4c(c3c2)n(-c2ccc(N3CCCC3)nc2C)c(=O)n4C)cn1` [Example 25.1, 3-Methyl-8-(6-methylamino-pyridin-3-yl)-1-(2-methyl-6-pyrrolidin-1-yl-pyridin-3-yl)-1,3-dihydro-imidazo[4,5-c]quinolin-2-one], in series [1], the “HT-Perm logPe pH6.8” value is reported as −3.9. For the same molecule, in series [2], the IC50 was determined as 1520 nM.
Taken in the same sequence, the figures for `Cc1nc(N2CCC(O)C2)ccc1-n1c(=O)n(C)c2cnc3ccc(-c4cncc(OC(C)C)c4)cc3c21` (centres unmarked) [Example 27.1, 1-[6-(3-Hydroxy-pyrrolidin-1-yl)-2-methyl-pyridin-3-yl]-8-(5-isopropoxy-pyridin-3-yl)-3-methyl-1,3-dihydro-imidazo[4,5-c]quinolin-2-one] were −4.9 and 13 nM.
Regarding `Cc1nc(C(C)(C)O)ccc1-n1c(=O)n(C)c2cnc3ccc(-c4cncc(OC(C)C)c4)cc3c21` [Example 31.9, 1-[6-(1-Hydroxy-1-methyl-ethyl)-2-methyl-pyridin-3-yl]-8-(5-isopropoxy-pyridin-3-yl)-3-methyl-1,3-dihydro-imidazo[4,5-c]quinolin-2-one], the “HT-Perm logPe pH6.8” value in series [1] is given as −3.8. Further, the IC50 in series [2] came to 62 nM.
`CNc1cc(-c2ccc3ncc4c(c3c2)n(-c2ccc(C(F)(F)F)nc2C)c(=O)n4C)cnc1CO` [Example 33.2, 8-(6-Hydroxymethyl-5-methylamino-pyridin-3-yl)-3-methyl-1-(2-methyl-6-trifluoromethyl-pyridin-3-yl)-1,3-dihydro-imidazo[4,5-c]quinolin-2-one]: the “HT-Perm logPe pH6.8” value in series [1] is listed as −4.8. Further, the IC50 in series [2] is 38 nM.
Turning to `Cc1nc(N2CC(F)(F)C(F)(F)C2)ccc1-n1c(=O)n(C)c2cnc3ccc(-c4cncc(C(C)(C)O)c4)cc3c21` [Example 35.1, 8-[5-(1-Hydroxy-1-methyl-ethyl)-pyridin-3-yl]-3-methyl-1-[2-methyl-6-(3,3,4,4-tetrafluoro-pyrrolidin-1-yl)-pyridin-3-yl]-1,3-dihydro-imidazo[4,5-c]quinolin-2-one], the “HT-Perm logPe pH6.8” value in series [1] is −4.3. In addition, the IC50 in series [2] came to 34 nM.
